The text below walks through data of patent US20230041738A1, “1H-PYRAZOLO[4,3-d]PYRIMIDINE COMPOUNDS AS TOLL-LIKE RECEPTOR 7 (TLR7) AGONISTS” (BRISTOL-MYERS SQUIBB COMPANY, priority 2020, published 2023).

In one assay the target is T1, human TLR7 (Homo sapiens, UniProt Q9NYK1).
T1 construct: host or cells: HEK-Blue TLR7 cells (engineered human embryonic kidney cells)
T1 sequence (Q9NYK1 27-1049): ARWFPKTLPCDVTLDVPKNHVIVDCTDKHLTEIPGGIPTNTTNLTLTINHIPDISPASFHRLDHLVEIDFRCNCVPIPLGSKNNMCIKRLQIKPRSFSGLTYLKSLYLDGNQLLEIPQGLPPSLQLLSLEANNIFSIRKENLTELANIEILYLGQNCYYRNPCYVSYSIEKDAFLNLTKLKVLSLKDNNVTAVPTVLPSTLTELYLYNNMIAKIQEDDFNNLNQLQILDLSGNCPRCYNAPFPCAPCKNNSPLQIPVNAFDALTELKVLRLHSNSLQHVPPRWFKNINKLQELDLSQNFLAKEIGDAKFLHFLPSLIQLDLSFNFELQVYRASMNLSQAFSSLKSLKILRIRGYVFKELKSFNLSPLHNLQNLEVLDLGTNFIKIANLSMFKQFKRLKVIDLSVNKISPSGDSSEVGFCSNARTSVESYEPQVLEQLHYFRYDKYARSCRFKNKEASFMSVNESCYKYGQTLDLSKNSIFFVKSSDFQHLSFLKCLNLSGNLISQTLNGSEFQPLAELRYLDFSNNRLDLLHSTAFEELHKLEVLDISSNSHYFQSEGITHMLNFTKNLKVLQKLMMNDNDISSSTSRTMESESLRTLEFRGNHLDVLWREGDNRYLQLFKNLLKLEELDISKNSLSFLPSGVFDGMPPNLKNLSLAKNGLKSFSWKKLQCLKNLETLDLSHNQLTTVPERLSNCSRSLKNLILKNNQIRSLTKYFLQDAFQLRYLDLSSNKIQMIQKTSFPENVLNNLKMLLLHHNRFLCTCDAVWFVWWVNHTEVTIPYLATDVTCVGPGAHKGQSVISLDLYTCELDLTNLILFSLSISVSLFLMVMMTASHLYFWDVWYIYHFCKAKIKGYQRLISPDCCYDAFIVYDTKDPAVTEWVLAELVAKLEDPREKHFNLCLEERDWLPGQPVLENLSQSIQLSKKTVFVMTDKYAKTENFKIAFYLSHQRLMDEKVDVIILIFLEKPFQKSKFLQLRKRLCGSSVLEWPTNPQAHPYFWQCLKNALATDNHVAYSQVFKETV
As to the kind of experiment: Human TLR7 agonist activity assay (hTLR7 reporter, HEK-Blue TLR7 cells, SEAP). The assay is classed as cell-based. The following applies: HEK-Blue TLR7 cells with SEAP reporter, 18 h treatment; average where assay performed multiple times. The method in brief: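 HEK-Blue TLR7 cells (15,000/well) treated with compound for 18 h at 37 °C, 5% CO2. Secreted SEAP measured with Quanti-Blue, 30 min, OD 620 nm. EC50 taken as concentration giving half-maximal response between baseline and maximum.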

The test system of a further assay is CD69. Put plainly: Induction of CD69 in human whole blood (hWB). It is filed as cell-based. To be noted: 17 hrs at 37 C, CD69 surface staining, 100% set to 1 uM resiquimod, average where performed multiple times. The essentials:
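Heparinized human whole blood, diluted in RPMI 1640, exposed to TLR7 agonist at 1 uM final (1 mM stock) for 17 h at 37° C. CD69 on CD19+ B cells measured by flow cytometry after surface staining and fix/lysis. […] curves normalized with 100% set to 1 uM resiquimod.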

As a reminder, the pEC50 is −log10 of the EC50, conventionally taken in molar units. A low value points to a large EC50.

pEC50: −log10 of the molar value.

With `CCC[C@@H](CCO)Nc1nc(N)nc2cnn(Cc3cnc(CN4C[C@H]5CNC[C@H]5C4)cc3OC)c12` [Compound 133, (3S)-3-({1-[(6-{[(3aR,6aS)-octa-hydropyrrolo[3,4-c]pyrrol-2-yl]methyl}-4-methoxypyridin-3-yl)methyl]-5-amino-1H-pyrazolo[4,3-d]pyrimidin-7-yl}amino)hexan-1-ol], the figures for the pEC50 at human TLR7 and with CD69 were 7.05 and 8.55, respectively.
